Test system: MV-4-11 cells
Assay: Gene expression microarray analysis (Affymetrix PrimeView) and GSEA
Assay type: cell-based, human
Set-up: RFU PODN (11730768_x_at) / Fold change /veh PODN (11730768_x_at) / RFU LINC00158 (11744669_a_at) / Fold change /veh LINC00158 (11744669_a_at) / RFU DUSP10 (11751237_a_at) / Fold change /veh DUSP10 (11751237_a_at) / RFU ID3 (11757404_x_at) / Fold change /veh ID3 (11757404_x_at) / RFU PLEKHG5 (11737974_s_at) / Fold change /veh PLEKHG5 (11737974_s_at) / RFU LRRC4B (11730491_at) / Fold change /veh LRRC4B (11730491_at) / RFU GIMAP4 (11747438_a_at) / Fold change /veh GIMAP4 (11747438_a_at) / RFU KRT8 (11758183_x_at) / Fold change /veh KRT8 (11758183_x_at) / RFU CNN1 (11734310_a_at) / Fold change /veh CNN1 (11734310_a_at) / RFU VPS37D (11726825_at) / Fold change /veh VPS37D (11726825_at) / RFU C10orf10 (11716522_x_at) / Fold change /veh C10orf10 (11716522_x_at) / RFU KIR2DL2 /// KIR2DL4 /// KIR2DL5A /// KIR2DL5B /// KIR2DS1 /// KIR2DS2 /// KIR2DS3 /// KIR2DS4 /// KIR3DL3 /// KIR3DL3 /// KIR3DS1 (11738374_at) / Fold change /veh KIR2DL2 /// KIR2DL4 /// KIR2DL5A /// KIR2DL5B /// KIR2DS1 /// KIR2DS2 /// KIR2DS3 /// KIR2DS4 /// KIR3DL3 /// KIR3DL3 /// KIR3DS1 (11738374_at) / RFU C1QL1 (11718748_at) / Fold change /veh C1QL1 (11718748_at) / RFU TMPRSS4 (11747572_a_at) / Fold change /veh TMPRSS4 (11747572_a_at) / RFU HAMP (11756126_x_at) / Fold change /veh HAMP (11756126_x_at) / RFU RNFT2 (11725882_a_at) / Fold change /veh RNFT2 (11725882_a_at) / RFU NR4A2 (11747474_a_at) / Fold change /veh NR4A2 (11747474_a_at) / RFU ABCC12 (11746883_a_at) / Fold change /veh ABCC12 (11746883_a_at) / RFU TMEM136 (11760407_x_at) / Fold change /veh TMEM136 (11760407_x_at) / RFU CLDN22 /// WWC2 (11732394_at) / Fold change /veh CLDN22 /// WWC2 (11732394_at) / RFU HLA-DPB1 (11760878_x_at) / Fold change /veh HLA-DPB1 (11760878_x_at) / RFU SPINT1 (11716480_a_at) / Fold change /veh SPINT1 (11716480_a_at) / RFU GAP43 (11754022_s_at) / Fold change /veh GAP43 (11754022_s_at) / RFU A4GNT (11735810_at) / Fold change /veh A4GNT (11735810_at) / RFU PRB3 (11715151_x_at) / Fold change /veh PRB3 (11715151_x_at) / RFU TUBB4B (11761932_at) / Fold change /veh TUBB4B (11761932_at) / RFU CAPN14 (11732068_a_at) / Fold change /veh CAPN14 (11732068_a_at) / RFU TMCC2 (11721928_a_at) / Fold change /veh TMCC2 (11721928_a_at) / RFU IRGQ (11745062_a_at) / Fold change /veh IRGQ (11745062_a_at) / RFU FAM174B (11720279_a_at) / Fold change /veh FAM174B (11720279_a_at) / RFU TMPRSS4 (11748680_a_at) / Fold change /veh TMPRSS4 (11748680_a_at) / RFU FAM212B (11763350_a_at) / Fold change /veh FAM212B (11763350_a_at) / RFU PLEKHG5 (11743358_a_at) / Fold change /veh PLEKHG5 (11743358_a_at) / RFU ZSCAN30 (11745921_a_at) / Fold change /veh ZSCAN30 (11745921_a_at) / RFU CMKLR1 (11741424_a_at) / Fold change /veh CMKLR1 (11741424_a_at) / RFU LOC101060620 /// MAPK8IP1 (11723275_at) / Fold change /veh LOC101060620 /// MAPK8IP1 (11723275_at) / RFU SPTSSB (11747773_x_at) / Fold change /veh SPTSSB (11747773_x_at) / RFU PRSS12 (11739890_at) / Fold change /veh PRSS12 (11739890_at) / RFU BIN1 (11741810_x_at) / Fold change /veh BIN1 (11741810_x_at) / RFU WNT11 (11732464_a_at) / Fold change /veh WNT11 (11732464_a_at) / RFU C10orf10 (11716521_a_at) / Fold change /veh C10orf10 (11716521_a_at) / RFU C5orf56 (11738089_at) / Fold change /veh C5orf56 (11738089_at) / RFU CYB561 (11721691_x_at) / Fold change /veh CYB561 (11721691_x_at) / RFU ANKRD19P (11752326_a_at) / Fold change /veh ANKRD19P (11752326_a_at) / RFU OR2T12 /// OR2T33 /// OR2T8 (11738714_s_at) / Fold change /veh OR2T12 /// OR2T33 /// OR2T8 (11738714_s_at) / RFU VCAN (11748164_a_at) / Fold change /veh VCAN (11748164_a_at) / RFU JSRP1 (11732532_at) / Fold change /veh JSRP1 (11732532_at) / RFU KRTAP10-11 (11738290_x_at) / Fold change /veh KRTAP10-11 (11738290_x_at) / RFU MYO3A (11730013_a_at) / Fold change /veh MYO3A (11730013_a_at) / RFU EBF3 (11725865_a_at) / Fold change /veh EBF3 (11725865_a_at) / RFU CAMK2N1 (11719241_x_at) / Fold change /veh CAMK2N1 (11719241_x_at) / RFU C5orf56 (11738088_a_at) / Fold change /veh C5orf56 (11738088_a_at) / RFU OLFML3 (11715873_a_at) / Fold change /veh OLFML3 (11715873_a_at) / RFU LOC100653217 /// NTM (11731650_a_at) / Fold change /veh LOC100653217 /// NTM (11731650_a_at) / RFU MAPK11 (11762145_a_at) / Fold change /veh MAPK11 (11762145_a_at) / RFU FIZ1 (11724087_x_at) / Fold change /veh FIZ1 (11724087_x_at) / RFU OASL (11726364_x_at) / Fold change /veh OASL (11726364_x_at) / RFU SOX15 (11748057_x_at) / Fold change /veh SOX15 (11748057_x_at) / RFU CD79A (11719716_a_at) / Fold change /veh CD79A (11719716_a_at) / RFU HIST1H1D (11736915_at) / Fold change /veh HIST1H1D (11736915_at) / RFU CASKIN2 (11723855_a_at) / Fold change /veh CASKIN2 (11723855_a_at) / RFU LOC730098 (11760151_x_at) / Fold change /veh LOC730098 (11760151_x_at) / RFU OR4N2 (11742367_at) / Fold change /veh OR4N2 (11742367_at) / RFU PRRT2 (11749266_a_at) / Fold change /veh PRRT2 (11749266_a_at) / RFU SNX32 (11753110_a_at) / Fold change /veh SNX32 (11753110_a_at) / RFU CDHR5 (11726645_a_at) / Fold change /veh CDHR5 (11726645_a_at) / RFU RCAN1 (11760418_a_at) / Fold change /veh RCAN1 (11760418_a_at) / RFU FAM167A (11723789_a_at) / Fold change /veh FAM167A (11723789_a_at) / RFU FAM26E (11764081_at) / Fold change /veh FAM26E (11764081_at) / RFU ISYNA1 (11749810_s_at) / Fold change /veh ISYNA1 (11749810_s_at) / RFU ACY1 (11761880_at) / Fold change /veh ACY1 (11761880_at) / RFU 11764098_at / Fold change /veh 11764098_at / RFU SAMD14 (11745864_x_at) / Fold change /veh SAMD14 (11745864_x_at) / RFU NPB (11741838_a_at) / Fold change /veh NPB (11741838_a_at) / RFU TMPRSS6 (11731388_a_at) / Fold change /veh TMPRSS6 (11731388_a_at) / RFU KRTAP10-2 (11738614_at) / Fold change /veh KRTAP10-2 (11738614_at) / RFU ARHGAP8 /// PRR5-ARHGAP8 (11727945_x_at) / Fold change /veh ARHGAP8 /// PRR5-ARHGAP8 (11727945_x_at) / RFU KRTAP5-7 /// NADSYN1 (11734609_at) / Fold change /veh KRTAP5-7 /// NADSYN1 (11734609_at) / RFU RASL12 (11751679_a_at) / Fold change /veh RASL12 (11751679_a_at) / RFU CDKN2B (11736163_a_at) / Fold change /veh CDKN2B (11736163_a_at) / RFU PRF1 (11729649_at) / Fold change /veh PRF1 (11729649_at) / RFU, ZNF638 /// ZNF638-IT1 / Fold change vs veh, ZNF638 /// ZNF638-IT1 / RFU, PANK3 / Fold change vs veh, PANK3 / RFU, SH3YL1 / Fold change vs veh, SH3YL1 / RFU, ZEB2 / Fold change vs veh, ZEB2 / RFU, NRIP1 / Fold change vs veh, NRIP1 / RFU, PTTG1IP / Fold change vs veh, PTTG1IP / RFU, CAPN2 / Fold change vs veh, CAPN2 / RFU, MED14 / Fold change vs veh, MED14 / RFU, SNORA58 / Fold change vs veh, SNORA58 / RFU, C1orf63 / Fold change vs veh, C1orf63 / RFU, LRRFIP1 / Fold change vs veh, LRRFIP1 / RFU, NDUFAF7 / Fold change vs veh, NDUFAF7 / RFU, SLC12A2 / Fold change vs veh, SLC12A2 / RFU, IBTK / Fold change vs veh, IBTK / RFU, ESF1 / Fold change vs veh, ESF1 / Fold change vs veh, TMEM50B / RFU, TAOK1 / Fold change vs veh, TAOK1 / RFU, ACBD3 / Fold change vs veh, ACBD3 / RFU, TMA16 / Fold change vs veh, TMA16 / RFU, RWDD3 / Fold change vs veh, RWDD3 / RFU, BCAT1 / Fold change vs veh, BCAT1 / RFU, EDEM3 / Fold change vs veh, EDEM3 / RFU, TMEM33 / Fold change vs veh, TMEM33 / RFU, WDR75 / Fold change vs veh, WDR75 / RFU, AHCTF1 / Fold change vs veh, AHCTF1 / RFU, TFRC / Fold change vs veh, TFRC / RFU, ZDHHC17 / Fold change vs veh, ZDHHC17 / RFU, NOM1 / Fold change vs veh, NOM1 / RFU, ARL8B / Fold change vs veh, ARL8B / RFU, ZBTB11 / Fold change vs veh, ZBTB11 / RFU, TAMM41 / Fold change vs veh, TAMM41 / RFU, KIAA1704 /// LOC100996395 / Fold change vs veh, KIAA1704 /// LOC100996395 / RFU, ING1 / Fold change vs veh, ING1 / RFU, TRMT61B / Fold change vs veh, TRMT61B / RFU, FUBP3 / Fold change vs veh, FUBP3 / RFU, TP53 / Fold change vs veh, TP53 / RFU, TNKS2 / Fold change vs veh, TNKS2 / RFU, ZFP14 / Fold change vs veh, ZFP14 / RFU, ACTR2 / Fold change vs veh, ACTR2 / RFU, PPP3R1 / Fold change vs veh, PPP3R1 / RFU, PIK3R1 / Fold change vs veh, PIK3R1 / RFU, HNRNPA1 / Fold change vs veh, HNRNPA1 / RFU, RNF170 / Fold change vs veh, RNF170 / RFU, ZNF28 / Fold change vs veh, ZNF28 / RFU, RNGTT / Fold change vs veh, RNGTT / RFU, OGT / Fold change vs veh, OGT / RFU, BRD1 / Fold change vs veh, BRD1 / RFU, MARS / Fold change vs veh, MARS / RFU, ZNF655 / Fold change vs veh, ZNF655 / RFU, FAHD1 / Fold change vs veh, FAHD1 / RFU, BDP1 / Fold change vs veh, BDP1 / RFU, LRRCC1 / Fold change vs veh, LRRCC1 / RFU, ARID1A / Fold change vs veh, ARID1A / RFU, ZNF146 / Fold change vs veh, ZNF146 / RFU, ZNF330 / Fold change vs veh, ZNF330 / RFU, GPN3 / Fold change vs veh, GPN3 / RFU, C9orf123 / Fold change vs veh, C9orf123 / RFU, N4BP2L2 / Fold change vs veh, N4BP2L2 / RFU, ARFIP1 / Fold change vs veh, ARFIP1 / RFU, FAM179B / Fold change vs veh, FAM179B / RFU, BCL10 / Fold change vs veh, BCL10 / RFU, UHRF1BP1L / Fold change vs veh, UHRF1BP1L / RFU, BET1 / Fold change vs veh, BET1 / RFU, CNOT2 / Fold change vs veh, CNOT2 / RFU, ZNF268 / Fold change vs veh, ZNF268 / Fold change vs veh, ZNF507 / RFU, DGCR2 / Fold change vs veh, DGCR2 / RFU, WDSUB1 / Fold change vs veh, WDSUB1 / Fold change vs veh, HSP90B1 /// MIR3652 / RFU, ADSS / Fold change vs veh, ADSS / RFU, GK / Fold change vs veh, GK / RFU, ZNF148 / Fold change vs veh, ZNF148 / RFU, TAF9 / Fold change vs veh, TAF9 / RFU, SLC1A5 / Fold change vs veh, SLC1A5 / RFU, SLMO2 / Fold change vs veh, SLMO2 / RFU, ABCC4 / Fold change vs veh, ABCC4 / RFU, LOC101060439 /// RAP1B / Fold change vs veh, LOC101060439 /// RAP1B / RFU, RFX7 / Fold change vs veh, RFX7 / RFU, GTPBP10 / Fold change vs veh, GTPBP10 / RFU, CNEP1R1 / Fold change vs veh, CNEP1R1 / RFU, BIVM-ERCC5 /// ERCC5 / Fold change vs veh, BIVM-ERCC5 /// ERCC5 / RFU, ILF3 / Fold change vs veh, ILF3 / RFU 11762660_at / Fold change /veh 11762660_at / RFU VCAN (11757783_s_at) / Fold change /veh VCAN (11757783_s_at) / RFU DDX43 (11728927_at) / Fold change /veh DDX43 (11728927_at) / RFU KRT8 (11758188_x_at) / Fold change /veh KRT8 (11758188_x_at) / RFU NKD1 (11759106_at) / Fold change /veh NKD1 (11759106_at) / RFU SRD5A1 (11742802_a_at) / Fold change /veh SRD5A1 (11742802_a_at) / RFU TPSAB1 /// TPSB2 (11721975_s_at) / Fold change /veh TPSAB1 /// TPSB2 (11721975_s_at) / RFU GSTM3 (11746129_a_at) / Fold change /veh GSTM3 (11746129_a_at) / RFU IL23R (11737362_x_at) / Fold change /veh IL23R (11737362_x_at) / RFU TMEM51 (11727254_a_at) / Fold change /veh TMEM51 (11727254_a_at) / RFU PIWIL2 (11732686_x_at) / Fold change /veh PIWIL2 (11732686_x_at) / RFU ORM1 (11744905_x_at) / Fold change /veh ORM1 (11744905_x_at) / RFU CCDC152 (11743942_at) / Fold change /veh CCDC152 (11743942_at) / RFU ECM1 (11717891_a_at) / Fold change /veh ECM1 (11717891_a_at) / RFU IL23R (11748794_a_at) / Fold change /veh IL23R (11748794_a_at) / RFU TNFAIP8L3 (11732012_x_at) / Fold change /veh TNFAIP8L3 (11732012_x_at) / RFU MBOAT4 (11741988_at) / Fold change /veh MBOAT4 (11741988_at) / RFU 11764193_at / Fold change /veh 11764193_at / RFU TMEM53 (11763286_at) / Fold change /veh TMEM53 (11763286_at) / RFU MAGEB2 (11727129_at) / Fold change /veh MAGEB2 (11727129_at) / RFU TMEM200A (11744735_a_at) / Fold change /veh TMEM200A (11744735_a_at) / RFU CCDC152 (11751479_a_at) / Fold change /veh CCDC152 (11751479_a_at) / RFU FAM211A (11726209_a_at) / Fold change /veh FAM211A (11726209_a_at) / RFU RGS16 (11746705_a_at) / Fold change /veh RGS16 (11746705_a_at) / RFU VCAN (11755009_s_at) / Fold change /veh VCAN (11755009_s_at) / RFU RHOB (11743442_s_at) / Fold change /veh RHOB (11743442_s_at) / RFU RGS16 (11720943_a_at) / Fold change /veh RGS16 (11720943_a_at) / RFU RGS16 (11720944_at) / Fold change /veh RGS16 (11720944_at) / RFU, VPS4B / Fold change vs veh, VPS4B / RFU, CREB1 / Fold change vs veh, CREB1 / RFU, DNAJC13 / Fold change vs veh, DNAJC13 / RFU, GNAQ / Fold change vs veh, GNAQ / RFU, CDK5R1 / Fold change vs veh, CDK5R1 / RFU, ZRANB3 / Fold change vs veh, ZRANB3 / RFU, CUL4A / Fold change vs veh, CUL4A / RFU, CCNY / Fold change vs veh, CCNY / RFU, UFL1 / Fold change vs veh, UFL1 / RFU, COG3 / Fold change vs veh, COG3 / RFU, DIAPH2 / Fold change vs veh, DIAPH2 / RFU, SKA2 / Fold change vs veh, SKA2 / RFU, AFF3 / Fold change vs veh, AFF3 / RFU, LMF1 / Fold change vs veh, LMF1 / RFU, IPO11 / Fold change vs veh, IPO11 / RFU, DFFB / Fold change vs veh, DFFB / RFU, FOXP1 / Fold change vs veh, FOXP1 / RFU, CARD8 / Fold change vs veh, CARD8 / RFU, STRN3 / Fold change vs veh, STRN3 / RFU, ADK / Fold change vs veh, ADK / RFU, RASSF2 / Fold change vs veh, RASSF2 / RFU, WIPF1 / Fold change vs veh, WIPF1 / RFU, LARP1B / Fold change vs veh, LARP1B / RFU, RASA1 / Fold change vs veh, RASA1 / RFU, RB1 / Fold change vs veh, RB1 / RFU, PPFIA1 / Fold change vs veh, PPFIA1 / RFU, MAT2A / Fold change vs veh, MAT2A / RFU, CCT5 / Fold change vs veh, CCT5 / RFU, WDR92 / Fold change vs veh, WDR92 / RFU, CUX1 / Fold change vs veh, CUX1 / RFU, TTC7A / Fold change vs veh, TTC7A / RFU, TMEM135 / Fold change vs veh, TMEM135 / RFU, DEPTOR / Fold change vs veh, DEPTOR / RFU, CPM / Fold change vs veh, CPM / RFU, DNAJB6 / Fold change vs veh, DNAJB6 / RFU, CACNA2D3 / Fold change vs veh, CACNA2D3 / RFU, DTX4 / Fold change vs veh, DTX4 / RFU, TFCP2 / Fold change vs veh, TFCP2 / RFU, GMCL1 /// GMCL1P1 / Fold change vs veh, GMCL1 /// GMCL1P1 / RFU, AEBP2 / Fold change vs veh, AEBP2 / RFU, SNHG1 /// SNORD22 /// SNORD25 /// SNORD26 /// SNORD27 /// SNORD28 /// SNORD29 /// SNORD31 / Fold change vs veh, SNHG1 /// SNORD22 /// SNORD25 /// SNORD26 /// SNORD27 /// SNORD28 /// SNORD29 /// SNORD31 / Fold change (Aza/veh), C12orf56 (ProbeSet 11735607_a_at) / Fold change (ACY-1035/veh), C12orf56 (ProbeSet 11735607_a_at) / Fold change (Aza/veh), FGFR1OP (ProbeSet 11751329_s_at) / Fold change (ACY-1035/veh), FGFR1OP (ProbeSet 11751329_s_at) / Fold change (Aza/veh), VPS36 (ProbeSet 11739960_a_at) / Fold change (ACY-1035/veh), VPS36 (ProbeSet 11739960_a_at) / RFU SYPL1 (11715823_x_at) / Fold change /veh SYPL1 (11715823_x_at) / RFU IGFBP7 (11715501_s_at) / Fold change /veh IGFBP7 (11715501_s_at) / RFU REEP3 (11722064_at) / Fold change /veh REEP3 (11722064_at) / RFU IGLL1 (11728026_x_at) / Fold change /veh IGLL1 (11728026_x_at): dose or concentration left out as unconfirmed
Conditions: MV-4-11 cells, 48 hours

Nc1ccc(-c2cccs2)cc1NC(=O)c1ccc2c(c1)cc(C1CC1)n2CCN1CCOCC1 [ACY-1035]
RFU ID3 (11757404_x_at): 47.18 RFU
